Source: patent US9670200B2, “Quaternary ammonium salt prodrugs” (Alkermes Pharma Ireland Limited, priority 2010, dated 2017)
Where two headings read alike, the source gives them in different places.

Legend:
[1] = Pharmacokinetic evaluation of asenapine and asenapine prodrugs in rats; format: in vivo, Sprague-Dawley rats; conditions: rat, 10 mg/rat IM
Experimental: Animals: 18 Male Sprague-Dawley rats (Charles River Laboratories, Wilmington, Mass.) were used in the study. Three groups of 6 rats were used and are referred to in this study as Groups A, B and C. Rats were approximately 350-375 g at time of arrival. Rats are housed 2 per cage with ad libitum chow and water. Environmental conditions in the housing room: 64-67° F., 30% to 70% relative humidity, and 12:12-h light: dark cycle. All experiments were approved by the institutional animal care and use committee.
Test Compounds: The following formulations of Asenapine parent drug and prodrug compounds of the invention were used in the study.
Pharmacokinetics study: Rats were dosed IM by means of a 23 gauge, 1 in. needle with 1 cc syringe 0.3 mL suspension was withdrawn from the vial containing the test compound. The rat was injected in the muscles of the hind limb after anesthesia with isoflurane. Blood samples were collected via a lateral tail vein after brief anesthesia with Isoflurane. A 271/2 G needle and 1 cc syringe without an anticoagulant was used for the blood collection. Approximately 350 μL of whole blood was collected at each sampling time point of 6 hours, 24 hours and 2, 5, 7, 9, 12, 14, 21, 28, 35 days after administration. Once collected, whole blood was immediately transferred to tubes containing K2 EDTA, inverted 10-15 times and immediately placed on ice. The tubes were centrifuged for 2 minutes at >14,000 g′ s (11500 RPMs using Eppendorf Centrifuge 5417C, F45-30-11 rotor) at room temperature to separate plasma. Plasma samples were transferred to labeled plain tubes (MICROTAINER®; MFG# BD5962) and stored frozen at <−70° C.
Drug concentrations in plasma samples were analyzed by liquid chromatography-mass spectroscopy using appropriate parameters for each compound. Half-life, volume of distribution, clearance, maximal concentration, and AUC were calculated by using WinNonlin version 5.2 software (Pharsight, St. Louis, Mo.).

[2] = Solution stability of asenapine prodrugs as a function of pH; format: physicochemical; conditions: 0.01M buffers pH 2.11-9.01 with acetonitrile, 25° C., HPLC at 1, 4, 10, 24 hours; compared with asenapine octanoate (FIGS. 1 and 2)
Experimental: The asenapine derived prodrugs were prepared at approximately 300 ug/mL in buffers with acetonitrile (see table of buffers below). The initial ratio of prodrug/parent was measured using a freshly prepared solution in unbuffered water. Acetonitrile was titrated into all samples as needed to ensure the complete dissolution of the compounds. The amount of acetonitrile varied depending on the solubility of each compound (see Note 1). 1.5 mL of each stability sample was transferred into a HPLC vial and the vials were maintained at 25° C. in the temperature controlled sample compartment of the HPLC. Each sample was assayed by HPLC after 1, 4, 10, and 24 hours for prodrug and asenapine content (see Note 2).
The fraction of prodrug remaining at each time point was calculated as Fraction Prodrug=(HPLC Area of Prodrug)/(HPLC area of prodrug+asenapine)(see Note 3). The loss of prodrug was then fit to the equation for first order decay: Fraction Prodrug=(Initial Fraction prodrug)*e^−kt where t=time (in hours) and k is the rate constant for decay. Finally, the half-lives were calculated as: t1/2=0.693/k
Note 1: The acetonitrile concentration is not expected to have a large impact on the degradation rate since the rate follows first order decay with respect to compound (ie, the rate constant is independent of the concentration). […]

[3] = Excerpt: At pH 4 and 5, 0.1 M citrate buffers were used, while for pH 6, 7 and 8a set of 0.1 M phosphate buffers were used. Each buffer also contained 0.2 M NaCl. No cosolvents or other potentially solubilizing components were included. Buffer preparations were subdivided in order to individually test the solubility of only one material in a given buffer sample.

Compound: CCC(C)(C)C(=O)OC[N+]1(C)CC2c3ccccc3Oc3ccc(Cl)cc3C2C1.[I-] (stereo not drawn) [ASN-83, 5-chloro-2-(((2,2-dimethylbutanoyl)oxy)methyl)-2-methyl-2,3,3a,12b-tetrahydro-1H-dibenzo[2,3:6,7]oxepino[4,5-c]pyrrol-2-ium iodide]
- Cmax of the Asenapine released ([1]; plasma, compared with parent Asenapine formulation and Asenapine palmitate prodrug (FIG. 3)): lower

Compound: CC(C)(C)C(=O)OC[N+]1(C)CC2c3ccccc3Oc3ccc(Cl)cc3C2C1.[Cl-] (stereo not drawn) [asenapine pivalate, asenapine pivalate prodrug]
- Solution stability as a function of pH [2]: more stable

Compound: CCC(C)(C)C(=O)OC[N+]1(C)CC2c3ccccc3Oc3ccc(Cl)cc3C2C1.[I-] (stereo not drawn) [Asenapine dimethyl butyrate prodrug, asenapine (α,α)-dimethyl butyrate iodide]
- decrease in plasma concentration over all the time points sampled ([1]; 6 hours to 35 days, compared with Asenapine or Asenapine palmitate prodrug): more gradual decrease
- duration of asenapine pharmacokinetics in the animals ([1]; compared with Asenapine or Asenapine palmitate prodrug): longer duration

Compound: CCCCCCCCCCCCC(C)(C)C(=O)OC[N+]1(C)CCN(C2=Nc3ccccc3Nc3sc(C)cc32)CC1.[I-] [Compound 18, 1-(((2,2-dimethyltetradecanoyl)oxy)methyl)-1-methyl-4-(2-methyl-10H-benzo[b]thieno[2,3-e][1,4]diazepin-4-yl)piperazin-1-ium iodide]
- variation in solubility across the pH range studied [3]: less than 2 fold

Compound: Cc1cc2c(s1)Nc1ccccc1N=C2N1CCN(C)CC1.O.O=C(O)c1cc2ccccc2c(Cc2c(O)c(C(=O)O)cc3ccccc23)c1O [olanzapine pamoate salt, olanzapine pamoate, reference compound]
- variation in solubility across the pH range studied ([3]; room temperature, 0.1 M citrate (pH 4, 5) or phosphate (pH 6, 7, 8) buffers with 0.2 M NaCl, pH range 4-9 (FIG. 4)): > 10 fold
